Assay results published in ChEMBL document CHEMBL1128323, “Antifungal agents. 9. 3-Aryl-4-[alpha-(1H-imidazol-1-yl)arylmethyl]pyrroles: a new class of potent anti-Candida agents” (1995).
Converted amounts (≈) assume the structure as drawn.

Tests used:
Type in all cases: functional
Candida [1] = experiment: Resistance against all Candida. species (40 clinical isolates) at 256 micro g/mL (pH=5.8). Activity is expressed as R%.
Candida [2] = experiment: Inhibitory activity against Candida. species. (40 clinical isolates), determined at pH-7.2
Candida [3] = experiment: Inhibitory activity against Candida. species (40 clinical isolates), determined at pH-5.8
Candida [4] = experiment: Inhibitory activity against Candida. species. (40 clinical isolates), determined at pH-5.8
Candida albicans [5] = experiment: 50% inhibitory activity against Candida albicans (40 clinical isolates) determined at pH-7.2; details: Candida albicans; read-out: MIC50
Candida albicans [6] = experiment: Percent resistance against Candida albicans (40 clinical isolates) at 256 micro g/mL (pH=5.8), activity is expressed as R%.
Candida [7] = experiment: 50% inhibitory activity against the Candida. species (40 clinical isolates) was determined at pH-7.2
Candida albicans [8] = experiment: Inhibitory activity against the Candida albicans (40 clinical isolates), determined at pH-7.2
Candida [9] = experiment: 90% inhibitory activity against Candida. species (40 clinical isolates) determined at pH-7.2
Candida albicans [10] = experiment: 50% inhibitory activity against Candida albicans (40 clinical isolates) determined at pH-5.8
Candida [11] = experiment: Percent resistance against all Candida. species (40 clinical isolates) at 256 micro g/mL (pH=7.2), activity is expressed as R%.
Candida albicans [12] = experiment: Inhibitory activity against the Candida albicans (40 clinical isolates), determined at pH-5.8
Candida albicans [13] = experiment: Inhibitory activity against Candida albicans (40 clinical isolates), determined at pH-7.2
Candida albicans [14] = experiment: Inhibitory activity against Candida albicans (40 clinical isolates), determined at pH-5.8
Candida albicans [15] = experiment: Resistance against Candida. albicans (40 clinical isolates) at 256 ug/mL (pH=7.2), activity is expressed as R%.

Row | SMILES | R (Candida [1]) [%] | MIC (Candida [2]) [µg/mL] | MIC50 (Candida [3]) [µg/mL] | MIC90 (Candida [3]) [µg/mL] | MIC (Candida [4]) [µg/mL] | MIC50 (Candida albicans [5]) [µg/mL] | R (Candida albicans [6]) [%] | MIC50 (Candida [7]) [µg/mL] | MIC90 (Candida albicans [8]) [µg/mL] | MIC90 (Candida [9]) [µg/mL] | MIC50 (Candida albicans [10]) [µg/mL] | R (Candida [11]) [%] | MIC90 (Candida albicans [12]) [µg/mL] | MIC (Candida albicans [13]) [µg/mL] | MIC (Candida albicans [14]) [µg/mL] | R (Candida albicans [15]) [%]
1 | O=[N+]([O-])c1ccc(C(c2c[nH]cc2-c2ccc(Cl)cc2Cl)n2ccnc2)cc1 (centres undefined) | 0 | > 207 | 32 (≈ 77.4 µM) | 32 (≈ 77.4 µM) | 30.2 (≈ 73.1 µM) | 32 (≈ 77.4 µM) | 0 | 256 (≈ 619 µM) | 64 (≈ 155 µM) | > 256 | 16 (≈ 38.7 µM) | 30 | 64 (≈ 155 µM) | 38.5 (≈ 93.2 µM) | 22.9 (≈ 55.4 µM) | 0
2 | Cc1ccc(C(c2c[nH]cc2-c2ccccc2Cl)n2ccnc2)cc1 (centres undefined) | 0 | 30.1 (≈ 86.5 µM) | 32 (≈ 92 µM) | 64 (≈ 184 µM) | 41.7 (≈ 120 µM) | 4 (≈ 11.5 µM) | 0 | 32 (≈ 92 µM) | 64 (≈ 184 µM) | 32 (≈ 92 µM) | 32 (≈ 92 µM) | 0 | 64 (≈ 184 µM) | 13.2 (≈ 37.9 µM) | 35.4 (≈ 102 µM) | 0
3 | Clc1ccccc1-c1c[nH]cc1C(c1ccc(-n2cccc2)cc1)n1ccnc1 (centres undefined) | 0 | 24.1 (≈ 60.4 µM) | 32 (≈ 80.2 µM) | 32 (≈ 80.2 µM) | 30.2 (≈ 75.7 µM) | 8 (≈ 20.1 µM) | 0 | 16 (≈ 40.1 µM) | 64 (≈ 160 µM) | 64 (≈ 160 µM) | 8 (≈ 20.1 µM) | 0 | 16 (≈ 40.1 µM) | 25.3 (≈ 63.4 µM) | 20.5 (≈ 51.4 µM) | 0
4 | Clc1ccc(-c2c[nH]cc2C(c2ccc(Cl)c(Cl)c2)n2ccnc2)cc1Cl (centres undefined) | 50 | > 309 | 256 (≈ 586 µM) | > 256 | > 328 | 8 (≈ 18.3 µM) | 0 | > 256 | 32 (≈ 73.2 µM) | > 256 | 8 (≈ 18.3 µM) | 50 | 32 (≈ 73.2 µM) | 14 (≈ 31.9 µM) | 9.2 (≈ 21 µM) | 0
5 | Clc1ccc(-c2c[nH]cc2C(c2cccc3ccccc23)n2ccnc2)cc1 (centres undefined) | 0 | 29 (≈ 75.5 µM) | 8 (≈ 20.8 µM) | 32 (≈ 83.4 µM) | 16.6 (≈ 43.2 µM) | 1 (≈ 2.6 µM) | 0 | 16 (≈ 41.7 µM) | 16 (≈ 41.7 µM) | 32 (≈ 83.4 µM) | 4 (≈ 10.4 µM) | 0 | 16 (≈ 41.7 µM) | 10.1 (≈ 26.3 µM) | 11.2 (≈ 29.2 µM) | 0
6 | Clc1ccc(C(c2c[nH]cc2-c2ccc(Cl)c(Cl)c2)n2ccnc2)c(Cl)c1 (centres undefined) | 0 | 38.2 (≈ 87.4 µM) | 32 (≈ 73.2 µM) | 32 (≈ 73.2 µM) | 27.7 (≈ 63.4 µM) | 2 (≈ 4.58 µM) | 0 | 32 (≈ 73.2 µM) | 16 (≈ 36.6 µM) | 32 (≈ 73.2 µM) | 2 (≈ 4.58 µM) | 0 | 16 (≈ 36.6 µM) | 5.8 (≈ 13.3 µM) | 5.9 (≈ 13.5 µM) | 0
7 | Clc1ccc(-c2c[nH]cc2C(c2ccc(Cl)cc2Cl)n2ccnc2)c(Cl)c1 (centres undefined) | 0 | 101 (≈ 231 µM) | 32 (≈ 73.2 µM) | 32 (≈ 73.2 µM) | 23.4 (≈ 53.5 µM) | 8 (≈ 18.3 µM) | 0 | 256 (≈ 586 µM) | 16 (≈ 36.6 µM) | 256 (≈ 586 µM) | 2 (≈ 4.58 µM) | 0 | 16 (≈ 36.6 µM) | 20.6 (≈ 47.1 µM) | 7.4 (≈ 16.9 µM) | 0
8 | Clc1ccc(C(c2c[nH]cc2-c2ccccc2Cl)n2ccnc2)cc1Cl (centres undefined) | 0 | 36.2 (≈ 89.9 µM) | 32 (≈ 79.5 µM) | 32 (≈ 79.5 µM) | 24.8 (≈ 61.6 µM) | 16 (≈ 39.7 µM) | 0 | 32 (≈ 79.5 µM) | 32 (≈ 79.5 µM) | 64 (≈ 159 µM) | 8 (≈ 19.9 µM) | 0 | 32 (≈ 79.5 µM) | 12.7 (≈ 31.5 µM) | 13.8 (≈ 34.3 µM) | 0
9 | Clc1ccc(-c2c[nH]cc2C(c2ccc(Cl)c(Cl)c2)n2ccnc2)c(Cl)c1 (centres undefined) | 0 | 21.3 (≈ 48.7 µM) | 16 (≈ 36.6 µM) | 16 (≈ 36.6 µM) | 14.2 (≈ 32.5 µM) | 16 (≈ 36.6 µM) | 0 | 16 (≈ 36.6 µM) | 32 (≈ 73.2 µM) | 32 (≈ 73.2 µM) | 2 (≈ 4.58 µM) | 0 | 32 (≈ 73.2 µM) | 19.6 (≈ 44.8 µM) | 7.2 (≈ 16.5 µM) | 0
